This assay has as its target Cryptosporidium parvum lysyl t-RNA synthetase (Cp KRS) (Cryptosporidium parvum, UniProt Q5CR27). In words: In vitro inhibition of Cryptosporidium lysyl tRNA synthetase (KRS), Biomol green phosphate detection. It counts as biochemical. Particulars: 300 nM CpKRS, 500 μM ATP, 1.2 mM L-Lysine, 8 h room temperature; read-out: C. parvum KRS pIC50 (converted). An excerpt:
The protein expression and purification method for recombinant CpKRS was described in Baragana et aL, PNAS, 2019, 116 (4), 7015-7020 and will be summarised below.
The C. parvum KRS had 45 residues removed at the N-terminus. All amplicons were cloned into the pAVA0421 expression vector using the ligation independent cloning (LIC) method. Recombinant plasmids were transformed into Rosetta BL21(DE3) competent cells and plated on LB agar plates with ampicillin, carbenicillin, and chloramphenicol selection. Clones were expressed using previously reported autoinduction methods and scaled to 2-litre cultures in a shake flasks. Cell pellets were harvested and lysed with 100 mM HEPES/150 mM NaCl/5% Glycerol/20 mM imidazole/0.5 mM TCEP pH 7.5/DNase/Complete inhibitor tablets) using a Cell Disrupter (Constant Systems) at 30 KPSI and centrifuged at 40,000 g for 20 min remove cell debris. The supernatant was loaded onto a 5 ml HiTrap Ni HP column that had been equilibrated with Buffer A (100 mM HEPES/150 mM NaCl/5% Glycerol/20 mM imidazole/0.5 mM TCEP pH 7.5) at 5 ml/min using an AKTA Pure system. Once loaded the column was washed with 10 column volumes of buffer A. A 5% step of Buffer B (100 mM HEPES/150 mM NaCl/5% Glycerol/500 mM imidazole/0.5 mM TCEP pH 7.5) was then used to wash off His-rich contaminating proteins. A linear gradient of 5-50% B was used to elute the protein. Approximately 287 mg of protein was present in the fractions containing the CpKRS protein. The sample was then concentrated to approximately 30 ml, passed through a 0.2 μm filter, before loading onto a XK26/60 Superdex 200 column using an AKTA Pure system at 4° C. at 2 ml/min 10 ml at a time. The eluted protein was pooled then frozen at −80° C. The concentration of the protein was 1.3 mg/ml. Sometimes the protein was cleaved with PreScission protease overnight, a second Ni column performed in flow through mode to removed uncleaved protein. GST beads were then added to remove the PreScission Protease. The protein was then gel filtered as descripted above.
Assay Method for Measurement of In Vitro Inhibition of Cryptosporidium lysyl tRNA Synthetase (KRS)
Potency of compounds was determined in 10 points dose-response inhibition curves. Compounds were transferred into 384-well clear bottom plates (Greiner Bio-One, 781101) using an Echo 550 acoustic dispenser (Labcyte). Using an automatic liquid dispenser, 50 μL reaction mixes were prepared by adding 25 μL of substrate mix into all wells followed by the addition of 25 μL enzyme mix into compounds and no inhibition control wells (final reaction: 100 mM HEPES, pH 7.4, 20 mM MgCl2, 1 mM DTT, 500 μM ATP, 1.2 mM L-Lysine, 300 nM CpKRS and 0.5 U/mL Pyrophosphatase). Complete inhibition control reactions were performed in the absence of enzyme and the plates were incubated at room temperature for 8 h. Reactions were stopped by the addition of Biomol green (50 μL: Enzo Life Sciences) with the amount of free phosphate detected by measuring absorbance (650 nm) after 20 min further incubation (BMG Pherastar plate reader). Counter screen assays to eliminate direct inhibition of pyrophosphatase were performed using 0.5 U/mL pyrophosphatase and 3 μM pyrophosphate as substrate in the same assay buffer (100 mM HEPES, pH 7.4, 20 mM MgCl2, 1 mM DTT) for 8 hours at room temperature. Biomol green was added and incubated for 20 min before detection as above. Samples were run in duplicate and data was processed and analysed using ActivityBase (IDBS).
Chain of Cryptosporidium parvum lysyl t-RNA synthetase (Cp KRS) (Q5CR27 entry or part of it): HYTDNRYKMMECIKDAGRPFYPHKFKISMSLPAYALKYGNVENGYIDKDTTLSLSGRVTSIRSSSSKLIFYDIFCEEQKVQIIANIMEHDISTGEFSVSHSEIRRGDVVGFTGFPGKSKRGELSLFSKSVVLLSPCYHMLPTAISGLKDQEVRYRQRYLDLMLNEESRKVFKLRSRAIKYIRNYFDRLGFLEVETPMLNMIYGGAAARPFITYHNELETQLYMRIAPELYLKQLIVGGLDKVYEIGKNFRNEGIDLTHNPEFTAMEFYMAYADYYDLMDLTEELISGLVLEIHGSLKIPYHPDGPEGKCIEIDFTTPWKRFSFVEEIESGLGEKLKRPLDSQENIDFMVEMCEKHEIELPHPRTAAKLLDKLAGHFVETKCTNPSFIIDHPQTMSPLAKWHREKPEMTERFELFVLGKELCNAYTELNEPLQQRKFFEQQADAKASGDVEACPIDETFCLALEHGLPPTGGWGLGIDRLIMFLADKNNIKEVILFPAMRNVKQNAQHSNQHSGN
With `Nc1nc2c(c(C(F)F)n1)C(=O)N(C[C@@H]1CCC[C@H](C(F)(F)F)C1)C2` [Compound 3, 2-amino-4-(difluoromethyl)-6-(((1R,3S)-3-(trifluoromethyl)cyclohexyl)methyl)-6,7-dihydro-5H-pyrrolo[3,4-d]pyrimidin-5-one], the IC50 was 1000 nM.

Regarding `Nc1nc2c(c(C(F)(F)F)n1)C(=O)N(C[C@@H]1CCC[C@H](C(F)(F)F)C1)C2` [Compound 1, 2-amino-4-(trifluoromethyl)-6-(((1R,3S)-3-(trifluoromethyl)cyclohexyl)methyl)-6,7-dihydro-5H-pyrrolo[3,4-d]pyrimidin-5-one], the IC50 was 794 nM.

Take `Nc1nc2c(c(C(F)(F)F)n1)C(=O)N(CC1CCCC3(CC3)C1)C2` (racemic) [Compound 4, 2-amino-6-(spiro[2.5]octan-5-ylmethyl)-4-(trifluoromethyl)-6,7-dihydro-5H-pyrrolo[3,4-d]pyrimidin-5-one]: the IC50 is 2510 nM.

Regarding `Cc1nc(N)nc2c1C(=O)N(C[C@@H]1CCC[C@H](C(F)(F)F)C1)C2` [Compound 2, 2-amino-4-methyl-6-(((1R,3S)-3-(trifluoromethyl)cyclohexyl)methyl)-6,7-dihydro-5H-pyrrolo[3,4-d]pyrimidin-5-one], the IC50 was 794 nM.

The values above are taken from patent US20250270216A1, “ANTI-INFECTIVE AGENTS” (UNIVERSITY OF DUNDEE, priority 2022, published 2025).
